Values of other authors, collected in patent US20180193304A1, “PHYTOTERPENOID FACILITATION OF THERAPEUTIC ONSET AND EFFICACY OF SUBLINGUAL CANNABINOID ADMINISTRATION” (JC Pharma Inc., priority 2017, published 2018).

What was measured:
[1] = tested on: inflammation; settings: mouse, in vivo
[2] = tested on: inflammation; settings: compared to steroid alternatives
[3] = tested on: experimental airways allergic inflammation; settings: oral
[4] = target: T1, CB2 receptor (Homo sapiens, UniProt P34972)
[5] = target: T1, CB2 receptor; remark: listed apart in the source

T1 sequence (P34972 whole entry): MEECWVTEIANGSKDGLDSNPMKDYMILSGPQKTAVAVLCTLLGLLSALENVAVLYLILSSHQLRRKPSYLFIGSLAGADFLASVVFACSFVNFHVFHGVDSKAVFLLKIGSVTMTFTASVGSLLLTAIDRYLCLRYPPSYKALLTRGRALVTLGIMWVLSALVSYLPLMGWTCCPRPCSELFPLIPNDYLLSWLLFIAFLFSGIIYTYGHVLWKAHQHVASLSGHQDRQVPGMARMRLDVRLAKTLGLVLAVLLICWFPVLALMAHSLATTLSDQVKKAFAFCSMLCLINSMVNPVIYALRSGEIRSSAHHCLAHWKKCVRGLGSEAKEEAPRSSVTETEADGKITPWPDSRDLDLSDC

Row | Structure (SMILES) | reduction of inflammation and pain relief [1] | anti-inflammatory response [2] | reduction of inflammation [3] | functional activity at CB2 receptor [4] | binding to the CB2 receptor [5]
1 | C/C1=C\CC/C(C)=C/CC(C)(C)/C=C/C1 [humulene] | effective in reducing inflammation and offering pain relief | comparable anti-inflammatory responses to steroid alternatives | highly effective at reducing inflammation | – | –
2 | C=C1CC/C=C(\C)CC[C@@H]2[C@@H]1CC2(C)C [β-caryophyllene] | – | comparable anti-inflammatory responses to steroid alternatives | – | functional CB2 agonist | selectively binds to the CB2 receptor
